Publication PMC10226132, “First-in-Class Selective Inhibitors of the Lysine Acetyltransferase KAT8” (Journal of Medicinal Chemistry, 2023)

Assays:
[1] = HPLC-based analysis of thiol reactivity; assay type: physicochemical; conditions: 0.5 mM compound, 2 mM DTT, BME or GSH, pH 7.5, 1, 8 or 24 h at room temperature
Method: Compounds 19 and 34 were dissolved in a solution containing 100 mM NaCl and 40 mM Tris·HCl (pH 7.5) with the addition of DTT, BME, or GSH (each at 2 mM) to a final concentration of 0.5 mM and incubated for 1, 8, and 24 h at rt. HPLC analysis was then performed at three wavelengths (254, 286, and 395 nm) under the same conditions described in the “Chemistry” paragraph of the Experimental Section.

[2] = molecular target: T1, KAT8 (Homo sapiens, UniProt Q9H7Z6); experiment: CETSA target engagement in HT29 cells; assay type: cell-based; conditions: 100 μM, 4 h, 59 °C
T1 construct: endogenous in cells; host or cells: HT29
T1 sequence (Q9H7Z6 whole entry): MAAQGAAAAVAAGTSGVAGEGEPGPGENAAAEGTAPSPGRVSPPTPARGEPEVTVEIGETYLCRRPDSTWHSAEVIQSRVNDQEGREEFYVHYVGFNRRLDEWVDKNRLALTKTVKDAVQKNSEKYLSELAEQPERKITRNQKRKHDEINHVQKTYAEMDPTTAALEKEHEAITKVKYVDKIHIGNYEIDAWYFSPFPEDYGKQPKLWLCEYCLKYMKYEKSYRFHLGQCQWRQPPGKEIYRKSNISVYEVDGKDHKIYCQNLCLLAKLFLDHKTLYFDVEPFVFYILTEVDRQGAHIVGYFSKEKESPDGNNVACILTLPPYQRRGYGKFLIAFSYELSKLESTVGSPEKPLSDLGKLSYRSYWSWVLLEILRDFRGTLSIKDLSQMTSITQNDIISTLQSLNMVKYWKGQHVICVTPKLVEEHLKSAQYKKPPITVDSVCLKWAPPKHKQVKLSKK
Method: Target engagement in cells was determined by CETSA.[65],[66] For CETSA experiments with cells treated in culture, ∼1 × 10^6 HT29 were treated with DMSO (0.5% v/v final) or 100 μM compound for 4 h at 37 °C and 5% CO2 in a humidified incubator. The cells were harvested, washed twice with PBS, and resuspended in PBS with protease inhibitors. The cell suspensions were then distributed into PCR tubes, heated at the indicated temperature in a SimpliAmp Thermal Cycler (Applied Biosystems) for 3 min, and then cooled for another 3 min at rt. The cell suspensions were then lysed by freeze-thawing three times with 3 min incubations in an ethanol/dry ice bath and water bath at 37 °C. The lysates were then centrifuged at 20,000×g for 30 min at 4 °C to remove cellular debris and protein aggregates, and lysates were prepared for WB analysis. Proteins were separated by SDS-PAGE on 13.5% gels and were transferred to nitrocellulose membranes (Biorad Laboratories). Membranes were blocked for 1 h and incubated overnight with the appropriate primary antibody at 4 °C. After incubation, membranes were washed and incubated with the appropriate secondary antibody (Biorad Laboratories) for 1 h at room temperature. […] The band signals were quantified using ImageJ and values normalized to the 37 °C DMSO control.

[3] = tested on: H4K16Ac in HT29 cells; experiment: Immunofluorescence of H4K16Ac in HT29 cells; assay type: cell-based, human; conditions: 50 μM, 24 h, compared with control
Method: For IF analysis, 1 × 10^5 HT-29 cells were grown on sterile coverslips. After 24 h, cells were exposed to different compounds for 24 h. IF staining for different acetylated lysine residues of histone H3 (H3K27Ac) and H4 (H4K16Ac) were carried out on PFA-fixed cells blocked with 20% goat serum in PBS and incubated overnight at 4 °C with primary rabbit monoclonal antibodies histone H3K27Ac (D5E4, Rabbit mAb#8173) and H4K16Ac (E2B8W, Rabbit mAb#13534, Cell Signalling Technology). Primary antibodies were detected using rabbit anti-IgG secondary antibodies conjugated with Cy3 (Jackson Immunoresearch 711-165-152). DNA was stained using 0.05 μg/mL 4′,6-diamidino-2-phenylindole (DAPI). The samples were acquired using an Olympus AX70 (Olympus America Inc.) microscope. Serial Z stacks of 0.4 μm thickness were acquired, taking care to cover the entire cell volume. For quantification of fluorescence intensity signals, images of untreated or treated cells were analyzed and processed using opensource Cell Profiler 4.1.3 image analysis software (https://cellprofiler.org/) to measure fluorescence-integrated intensity values for antibody binding relating to individual cells as previously reported.[67]

[4] = tested on: H1299 cells; experiment: MTT cell proliferation assay, H1299; assay type: cell-based, human; conditions: for antiproliferative activity in H1299: 10, 25, 50, 100 μM, 72 h; for IC50: Homo sapiens, NCI-H1299, 72 h treatment, MTT
Excerpt: Human commercially available AML U937, breast cancer MCF7, lung adenocarcinoma NCI-H460, H1299 and A-549, glioblastoma U251, B lymphocyte AHH1 cell lines were maintained in compete 10% foetal bovine serum (FBS,) RPMI 1640 (Euroclone, Milan, IT) medium. Human commercially available colon cancer HCT116 and HT29 lines and cervix adenocarcinoma HeLa cells were maintained in compete 10% FBS Dulbecco’s Modified Eagle Medium (DMEM) high glucose medium (Euroclone). L-Glutamine, FBS, and penicillin streptomycin mixture added to medium were obtained from Euroclone. All cell lines were cultured at 37 °C in a humidified atmosphere of 5% CO2:95% air and were tested for mycoplasma contamination routinely by RT-PCR.
(§1) For analysis of cell proliferation, cells were plated in sextuplicate on 96-well plates in complete media. After 24 h, cells were exposed to different drugs for 72 h. The inhibitory effect of different drugs was assessed by MTT (Sigma, St. Louis, MO, USA) colorimetric assays as previously reported.[67] Aqueous DMSO (0.5% v/v) was used as a control (untreated). The results are reported as “viability of drug-treated cells/viability of untreated cells” × 100 and represent the average ±SD of three independent experiments. IC50 values were using fitted by nonlinear regression using GraphPad Prism 8.0.

[5] = tested on: human intestinal epithelial cells (InEpC); experiment: Proliferation of human intestinal epithelial cells (InEpC); assay type: cell-based; conditions: 25, 50, 100, 200 μM, 72 h
Method: as §1

[6] = tested on: LC3 and p62 in HCT116 cells; experiment: Western blot of autophagic markers in HCT116 cells; assay type: cell-based, human; conditions: increasing doses, 48 h
Method: For WB experiments, the cells were lysed in RIPA buffer supplemented with 1× […] protease inhibitor cocktail (Sigma-Aldrich, S8830); 20 μg of total protein was resolved in 13.5% gels by SDS-PAGE. Then, the proteins were transferred to nitrocellulose membranes (Biorad Laboratories). Membranes were blocked for 1 h and incubated overnight with the appropriate primary antibody at 4 °C. After incubation, membranes were washed and incubated with the appropriate secondary antibody (Biorad Laboratories) for 1 h at room temperature. Following primary rabbit monoclonal antibodies H4K16Ac (1:1000, E2B8W, Rabbit mAb#13534, Cell Signalling Technology), KAT8 (1:1000, D5T3R Rabbit mAb #46862 Cell Signalling Technology), GAPDH (1:1000, sc-32233, Santa Cruz Biotechnologies), anti-LC3B (Sigma-Aldrich, L7543), anti-SQSTM1/p62 (Santa Cruz Biotechnology, sc-28,359), and anti-GAPDH (Santa Cruz Biotechnology, sc-32,233). Secondary antibodies: anti-mouse (Bio-Rad Laboratories, 1,706,515) or anti-rabbit (Bio-Rad Laboratories, 1,706,516) IgG-horseradish peroxidase-conjugated antibodies. Detection was performed by ECL Western Blotting Substrate (Biorad Laboratories). Images of blots were acquired through the ChemiDoc Imaging Systems (Biorad Laboratories). The band signals were quantified using ImageJ, and values were normalized to relative controls, depending on the analysis.

reaction with thiol-containing nucleophiles (HPLC) [1]	IC50 [4] [µM]	SMILES	target engagement (stabilization of KAT8 against thermal-induced aggregation) [2]	reduction in H4K16Ac signal intensity (IF) [3]	antiproliferative activity in H1299 [4]	effect on proliferation of InEpC [5]	LC3-II/-I ratio and p62 autophagic markers (WB), HCT116 [6]
no evidence of reaction	41.6 ± 6.8	O=C(O)c1ccc(N2N=C(c3ccccc3)/C(=C/c3ccc[nH]3)C2=O)cc1 [Compound 34, (Z)-4-(4-((1H-Pyrrol-2-yl)methylene)-5-oxo-3-phenyl-4,5-dihydro-1H-pyrazol-1-yl)benzoic Acid]	stabilize KAT8 against thermal-induced aggregation	more than 50%	dose-dependent antiproliferative effects	did not significantly affect the proliferation	modulation of the LC3-II/-I ratio and p62 autophagic markers
no evidence of reaction	52.1 ± 10.6	CC1=NN(c2ccc(C(=O)O)cc2)C(=O)/C1=C\c1ccc[nH]1 [Compound 19, (Z)-4-(4-((1H-Pyrrol-2-yl)methylene)-3-methyl-5-oxo-4,5-dihydro-1H-pyrazol-1-yl)benzoic Acid]	stabilize KAT8 against thermal-induced aggregation	80%	dose-dependent antiproliferative effects	did not significantly affect the proliferation	modulation of the LC3-II/-I ratio and p62 autophagic markers
